molecular target: T1, Farnesyl pyrophosphate synthase (Homo sapiens, UniProt P14324); assay: Inhibition Assay; conditions: pH 7.4; 25 °C
T1 sequence (P14324 whole entry): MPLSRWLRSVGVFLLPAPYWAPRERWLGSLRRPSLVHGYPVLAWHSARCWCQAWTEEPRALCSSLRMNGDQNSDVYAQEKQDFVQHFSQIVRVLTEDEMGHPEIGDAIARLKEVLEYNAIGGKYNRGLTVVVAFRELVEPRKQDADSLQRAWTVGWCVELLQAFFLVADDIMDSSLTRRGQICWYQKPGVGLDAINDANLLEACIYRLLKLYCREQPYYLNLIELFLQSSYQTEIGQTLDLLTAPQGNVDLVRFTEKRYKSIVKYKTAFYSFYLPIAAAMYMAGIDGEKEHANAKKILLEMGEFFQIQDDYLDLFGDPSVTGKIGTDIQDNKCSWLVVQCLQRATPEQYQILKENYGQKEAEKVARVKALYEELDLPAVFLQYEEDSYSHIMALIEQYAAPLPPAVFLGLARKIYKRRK
Description: Human FPPS was expressed and purified and inhibition assays carried out as described previously.

IC50 [µM] | SMILES
13.7 | O=C(Nc1cccc(C2=NCCN2)c1)c1ccc(C(=O)Nc2cccc(C3=NCCN3)c2)cc1 [35839, 19]
7 | O=C(Nc1ccccc1C1=NCCN1)c1ccc(C(=O)Nc2ccccc2C2=NCCN2)cc1 [35844, 17]
1.8 | O=C(Nc1cccc(C2=NCCN2)c1)c1ccc(-c2ccc(C(=O)Nc3cccc(C4=NCCN4)c3)cc2)cc1 [50460, 14]
21 | Nc1cc(C(=O)Nc2cccc(C3=NCCN3)c2)ccc1C(=O)Nc1cccc(C2=NCCN2)c1 [50464, 21]
20.3 | Nc1cc(C(=O)Nc2ccc(C3=NCCN3)cc2)ccc1C(=O)Nc1ccc(C2=NCCN2)cc1 [50469, 20]
1.9 | O=C(Nc1ccc(C2=NCCN2)cc1)c1cccc(C(=O)Nc2ccc(C3=NCCN3)cc2)c1 [53212, 15]
109 | O=C(Nc1ccc(C2=NCCN2)cc1)c1ccc(C(=O)Nc2ccc(C3=NCCN3)cc2)c([NH+]([O-])O)c1 (stereo unspecified) [60340, 13]
2.5 | CC1CNC(c2ccc(NC(=O)c3ccc(C(=O)Nc4ccc(C5=NC(C)CN5)cc4)c(N)c3)cc2)=N1 (stereo unspecified) [66761, 16]
22.3 | Nc1c(C(=O)Nc2ccc(C3=NCCN3)cc2)cccc1C(=O)Nc1ccc(C2=NCCN2)cc1 [72564, 22]
35 | O=C(Nc1ccc(C2=NCCN2)c(O)c1)c1ccc(C(=O)Nc2ccc(C3=NCCN3)c(O)c2)cc1 [76527, 23]
10.7 | NC(=O)c1cc(NC(=O)c2ccc(C(=O)Nc3cc(C(N)=O)cc(C4=NCCN4)c3)cc2)cc(C2=NCCN2)c1 [100873, 18]
